These results are taken from patent US20070287630A1, “Moisturizing agent with nutrients” (DriWater, Inc., priority 2006, published 2007).

For the series the following is noted: acetic acid acting as a preservative in the gel.

Consider `CC(=O)O` [acetic acid], for which the “effect on gel degradation in soil” value is listed as “slow gel degradion in soil”.
